{
  "source": "patent US12461089B2",
  "about": "“Olfactory receptor involved in the perception of musk fragrance and the use thereof” (ChemoSensoryX Biosciences SA, priority 2017, dated 2025)",
  "format_in_all_cases": "cell-based",
  "key": {"OR5A1": {"biological_target": "T1, OR5A1 (Homo sapiens, UniProt Q8NGJ0)", "T1 construct": "expressed in transfected cells; host or cells: HEK293T-RTP1A1/RTP2", "T1 sequence (Q8NGJ0 1-315)": "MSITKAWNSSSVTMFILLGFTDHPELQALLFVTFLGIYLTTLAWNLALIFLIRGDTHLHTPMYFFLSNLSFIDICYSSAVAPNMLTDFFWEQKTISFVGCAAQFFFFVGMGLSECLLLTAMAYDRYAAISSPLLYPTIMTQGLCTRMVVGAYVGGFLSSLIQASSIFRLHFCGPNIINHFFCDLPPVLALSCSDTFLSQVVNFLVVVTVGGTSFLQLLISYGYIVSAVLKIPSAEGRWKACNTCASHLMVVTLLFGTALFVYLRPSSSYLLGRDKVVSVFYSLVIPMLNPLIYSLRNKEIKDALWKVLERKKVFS", "assay": "Luciferase reporter concentration-response analysis on OR5A1", "details": "CRE-luciferase; empty vector pEFIBRHO as control", "method": "(§1) HEK293T-RTP1A1/RTP2 cells were maintained in minimal essential medium (EMEM, Lonza) containing 10% fetal bovine serum (M10). These cells were generated by transfecting HEK293T with an expression vector containing the sequences of the chaperone proteins RTP1A1 and RTP2 and a resistance gene to puromycin, using Lipofectamine 2000. The recombinant cell population, used in these experiments, was selected by adding 10 μg/ml of puromycin into the culture medium and subsequently subcloned (WO 2014/191047 A1).\n(§2) Odorant molecules were diluted at a concentration of 1 mole/liter (M) into dimethyl sulfoxide (DMSO) to generate stock solutions.\n(§3) For concentration-response analysis, serial dilutions of the tested molecules were prepared from stock solutions in EMEM plated into 96-well plates.\nFor the initial deorphanisation screening and dose-response analysis, a Luciferase-based gene reporter assay (Promega, Leiden, The Nederlands) was used. […] Sixteen hours after transfection, the culture medium was replaced by serum-free EMEM containing the tested compounds at a determined concentration. After four hours of incubation at 37° C. degree, cells were lysed and processed for luminescence measurement. Luminescene emission was recorded. Results were expressed as luciferase activity ([…] (RLU)) or as percentage of the response induced by 10 μM of the adenylate cyclase activator Forskolin. […]"}, "OR5A2_variant 1": {"biological_target": "T2, OR5A2_variant 1 (Homo sapiens, UniProt Q8NGI9)", "T2 construct": "expressed in transfected cells; host or cells: HEK293T-RTP1A1/RTP2", "T2 sequence (Q8NGI9 1-324)": "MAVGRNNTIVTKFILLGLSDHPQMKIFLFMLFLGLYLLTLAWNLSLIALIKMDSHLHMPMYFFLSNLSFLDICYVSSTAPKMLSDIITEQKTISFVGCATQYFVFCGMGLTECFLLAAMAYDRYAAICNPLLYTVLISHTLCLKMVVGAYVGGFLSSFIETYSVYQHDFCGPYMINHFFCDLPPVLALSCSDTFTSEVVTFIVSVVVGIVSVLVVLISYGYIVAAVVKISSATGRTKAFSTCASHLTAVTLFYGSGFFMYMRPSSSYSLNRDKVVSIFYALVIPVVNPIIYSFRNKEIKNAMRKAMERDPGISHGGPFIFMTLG", "assay": "Luciferase reporter concentration-response analysis on OR5A2_variant 1", "details": "CRE-luciferase; semi-logarithmic serial dilutions; empty vector pEFIBRHO as control", "method": "(§4) HEK293T-RTP1A1/RTP2 cells were maintained in minimal essential medium (EMEM, Lonza) containing 10% fetal bovine serum (M10). These cells were generated by transfecting HEK293T with an expression vector containing the sequences of the chaperone proteins RTP1A1 and RTP2 and a resistance gene to puromycin, using Lipofectamine 2000.\nas §2, §3\n(§5) For the initial deorphanisation screening and dose-response analysis, a Luciferase-based gene reporter assay (Promega, Leiden, The Nederlands) was used. Briefly, cells were platted on Poly-D-lysine-coated 96-well and transfected with a plasmid containing the CRE-luciferase and a plasmid containing the olfactory receptor. Sixteen hours after transfection, the culture medium was replaced by serum-free EMEM containing the tested compounds at a determined concentration. After four hours of incubation at 37° C. degree, cells were lysed and processed for luminescence measurement. Luminescene emission was recorded. Results were expressed as luciferase activity (Relative […] Unit (RLU)) or as percentage of the response induced by 10 μM of the adenylate cyclase activator Forskolin. An empty plasmid is used as negative control.\n(§6) 35 musk compounds from the four structurally different chemical groups previously described were tested in concentration-response analyses (Table 2). In each experiment, an empty vector was used as negative control (pEFIBRHO). […] Full results including the calculated EC50 are given in Table 2; “non active” represent negative experiments, no activation after testing."}, "chimeric OR5A2_variant 1": {"biological_target": "T3, chimeric OR5A2_variant 1 (Homo sapiens, UniProt Q8NGI9, F293L/H55R/I289L/M58T)", "T3 construct": "expressed in transfected cells; host or cells: HEK293T-RTP1A1/RTP2", "T3 sequence (Q8NGI9 with tags, fused parts or gaps H55R/M58T/I289L/F293L)": "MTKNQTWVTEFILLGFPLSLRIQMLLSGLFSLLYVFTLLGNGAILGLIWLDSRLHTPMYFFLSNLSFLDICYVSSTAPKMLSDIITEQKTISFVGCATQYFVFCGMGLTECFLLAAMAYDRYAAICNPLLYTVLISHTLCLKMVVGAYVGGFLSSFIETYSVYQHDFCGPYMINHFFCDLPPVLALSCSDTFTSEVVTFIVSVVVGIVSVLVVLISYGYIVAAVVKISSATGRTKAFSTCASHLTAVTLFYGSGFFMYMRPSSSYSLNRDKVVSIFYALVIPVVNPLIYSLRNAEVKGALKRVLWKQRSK", "assay": "Luciferase reporter concentration-response analysis on chimeric OR5A2_variant 1", "details": "CRE-luciferase, empty vector pEFIBRHO as control", "method": "as §4, §2, §3, §5\nTo test if the amino acids substitution could impact the musk sensitivity, and specificity and to validate the Krautwurst's model, luciferase assays were performed as described previously after transfection of the chimeric OR5A2_variant 1. Cells were treated with semi-logarithmic serial dilutions of musk compounds from the four structurally different groups described earlier.\nIn each experiment, an empty vector was used as negative control (pEFIBRHO)."}, "OR11A1": {"biological_target": "T4, OR11A1 (Homo sapiens, UniProt Q9GZK7)", "T4 construct": "expressed in transfected cells; host or cells: HEK293T-RTP1A1/RTP2", "T4 sequence (Q9GZK7 1-315)": "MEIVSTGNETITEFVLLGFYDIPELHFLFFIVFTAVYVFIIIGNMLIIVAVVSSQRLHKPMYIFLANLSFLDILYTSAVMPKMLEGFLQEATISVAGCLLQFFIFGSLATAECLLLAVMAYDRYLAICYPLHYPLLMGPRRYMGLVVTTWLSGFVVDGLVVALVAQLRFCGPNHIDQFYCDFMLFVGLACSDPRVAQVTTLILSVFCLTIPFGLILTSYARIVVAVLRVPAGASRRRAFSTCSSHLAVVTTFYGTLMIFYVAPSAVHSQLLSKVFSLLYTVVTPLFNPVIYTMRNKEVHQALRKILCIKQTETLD", "assay": "Luciferase reporter concentration-response analysis on OR11A1", "details": "CRE-luciferase; empty vector pEFIBRHO as control", "method": "as §4, §2, §3, §5, §6\nThese compounds were tested in concentration-response analysis in luciferase assays, as described previously. In each experiment, an empty vector was used as negative control (pEFIBRHO)."}, "OR5AN1": {"biological_target": "T5, OR5AN1 (Homo sapiens, UniProt Q8NGI8, E89G)", "T5 construct": "expressed in transfected cells; host or cells: HEK293T-RTP1A1/RTP2", "T5 sequence (Q8NGI8 1-311 E89G)": "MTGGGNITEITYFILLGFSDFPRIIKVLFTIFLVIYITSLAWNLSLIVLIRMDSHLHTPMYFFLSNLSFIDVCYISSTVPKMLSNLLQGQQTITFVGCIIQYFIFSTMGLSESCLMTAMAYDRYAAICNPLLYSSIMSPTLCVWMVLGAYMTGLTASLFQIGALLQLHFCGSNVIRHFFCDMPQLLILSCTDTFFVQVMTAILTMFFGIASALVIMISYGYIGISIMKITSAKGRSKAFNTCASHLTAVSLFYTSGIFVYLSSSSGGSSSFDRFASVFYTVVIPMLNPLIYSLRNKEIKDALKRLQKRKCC", "assay": "Luciferase reporter concentration-response analysis on OR5AN1", "details": "CRE-luciferase; empty vector pEFIBRHO as control", "method": "as §1, §2, §3, §5\nIn these analyses we also included ORs previously described as musk-specific receptors OR5AN1 (SEQ ID n° 7) (WO 2015/020158 A1, Shirasu et al. 2014 Neuron 81, 165-78, Sato-Akuhara N et al. 2016 J Neurosci. 36(16), 4482-91) and OR11A1 (SEQ ID n° 8) (WO 2016/201152 A1). […] Therefore, OR5A1 was included in the analyses. 35 musk compounds from the four structurally different chemical groups previously described were tested in concentration-response analyses (Table 2). In each experiment, an empty vector was used as negative control (pEFIBRHO). […] Full results including the calculated EC50 are given in Table 2; “non active” represent negative experiments, no activation after testing. […]"}},
  "data": [
    {"smiles": "CC(=O)/C=C/C1=C(C)CCCC1(C)C", "note": "[Beta-ionone]", "values": [
      {"measurement": "activation of OR5A1, concentration-response", "setting": "OR5A1", "result": "able to activate OR5A1 only"},
      {"measurement": "activation of OR5A2 (OR5A2_variant 1), concentration-response", "setting": "OR5A2_variant 1", "result": "stimulated neither"},
      {"measurement": "activation of chimeric OR5A2_variant 1, concentration-response", "setting": "chimeric OR5A2_variant 1", "result": "not able to activate"},
      {"measurement": "activation of chimeric OR5A2_variant 1, concentration-response", "setting": "chimeric OR5A2_variant 1; listed as beta-ionone", "result": "not activated"},
      {"measurement": "activation of OR11A1, concentration-response", "setting": "OR11A1", "result": "able to activate OR5A1 only"},
      {"measurement": "activation of OR5AN1, concentration-response", "setting": "OR5AN1", "result": "stimulated neither"}
    ]}
  ]
}
